Measured values from ChEMBL document CHEMBL5653595 (J Biol Chem, 2003).
The source made the active and inactive calls. The rule behind the calls is not given here.

Columns and labels:
[1] = target: Epidermal growth factor receptor (Homo sapiens) (UniProt P00533); experiment: Inhibition of recombinant human Her1 at 100 uM
[2] = target: Mitogen-activated protein kinase 1 (Homo sapiens) (UniProt P28482); experiment: Inhibition of recombinant human ERK2 at 100 uM
[3] = tested on: Mus musculus; experiment: Antiinflammatory activity against LPS-induced BALB/c mouse assessed as reduction in TNFalpha cytokine level at 100 mg/kg, po pretreated for 1 hr followed by LPS-stimulation and measured after 90mins by enzyme immunoassay; type: functional; design: scale not given: the % may be the effect or the level left; conditions: time 150 min, 2.5 h
[4] = target: T1, Protein kinase C zeta type (Homo sapiens) (UniProt Q05513); experiment: Inhibition of recombinant human PKCzeta at 100 uM
T1 sequence (whole entry): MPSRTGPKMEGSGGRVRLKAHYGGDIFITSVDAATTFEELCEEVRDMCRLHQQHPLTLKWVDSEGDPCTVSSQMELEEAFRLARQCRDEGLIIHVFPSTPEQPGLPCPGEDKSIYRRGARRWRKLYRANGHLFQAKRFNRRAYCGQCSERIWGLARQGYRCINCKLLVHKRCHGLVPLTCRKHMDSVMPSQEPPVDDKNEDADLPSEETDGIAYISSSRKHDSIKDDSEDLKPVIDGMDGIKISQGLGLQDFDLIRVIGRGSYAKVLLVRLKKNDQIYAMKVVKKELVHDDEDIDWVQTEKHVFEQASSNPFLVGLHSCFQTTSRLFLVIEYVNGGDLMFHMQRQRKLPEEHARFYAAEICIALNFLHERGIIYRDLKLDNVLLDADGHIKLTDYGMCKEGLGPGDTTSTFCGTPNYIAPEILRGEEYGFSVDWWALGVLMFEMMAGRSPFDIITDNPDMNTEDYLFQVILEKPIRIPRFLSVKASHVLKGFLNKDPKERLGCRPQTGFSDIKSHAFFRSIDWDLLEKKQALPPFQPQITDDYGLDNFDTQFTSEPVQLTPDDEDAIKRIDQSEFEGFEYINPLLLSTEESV

[5] = target: MAP kinase-activated protein kinase 2 (Homo sapiens) (UniProt P49137); experiment: Inhibition of recombinant human MAPKAPK2 at 100 uM
MAP kinase-activated protein kinase 2 (Homo sapiens), sequence (P49137 whole entry, looked up): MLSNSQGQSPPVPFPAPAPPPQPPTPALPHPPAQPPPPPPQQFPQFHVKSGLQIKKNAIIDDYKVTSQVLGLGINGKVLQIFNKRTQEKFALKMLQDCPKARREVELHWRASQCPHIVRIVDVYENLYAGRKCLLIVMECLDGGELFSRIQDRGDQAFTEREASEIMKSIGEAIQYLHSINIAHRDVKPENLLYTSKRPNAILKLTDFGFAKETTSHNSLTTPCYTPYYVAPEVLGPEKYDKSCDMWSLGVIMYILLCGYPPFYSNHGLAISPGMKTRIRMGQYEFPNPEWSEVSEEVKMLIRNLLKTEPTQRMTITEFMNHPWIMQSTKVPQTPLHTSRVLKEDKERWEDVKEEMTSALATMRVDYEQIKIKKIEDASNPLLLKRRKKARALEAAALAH

[6] = Oral bioavailability in BALB/c mouse at 10 mg/kg measured upto 8 hrs by LC-MS-MS analysis; type: ADME, organism-based; conditions: in vivo
[7] = tested on: THP-1; experiment: Antiinflammatory activity against LPS-induced human THP-1 cells assessed as reduction in IL-6 cytokine level preincubated for 1 hr followed by LPS-stimulation and measured after 24 hrs by enzyme immunoassay; type: functional, cell-based
[8] = tested on: THP-1; experiment: Antiinflammatory activity against LPS-induced human THP-1 cells assessed as reduction in IL-1beta cytokine level preincubated for 1 hr followed by LPS-stimulation and measured after 6 hrs by enzyme immunoassay; type: functional, cell-based
[9] = target: Receptor tyrosine-protein kinase erbB-2 (Homo sapiens) (UniProt P04626); experiment: Inhibition of recombinant human Her2 at 100 uM
Receptor tyrosine-protein kinase erbB-2 (Homo sapiens), sequence (P04626 whole entry): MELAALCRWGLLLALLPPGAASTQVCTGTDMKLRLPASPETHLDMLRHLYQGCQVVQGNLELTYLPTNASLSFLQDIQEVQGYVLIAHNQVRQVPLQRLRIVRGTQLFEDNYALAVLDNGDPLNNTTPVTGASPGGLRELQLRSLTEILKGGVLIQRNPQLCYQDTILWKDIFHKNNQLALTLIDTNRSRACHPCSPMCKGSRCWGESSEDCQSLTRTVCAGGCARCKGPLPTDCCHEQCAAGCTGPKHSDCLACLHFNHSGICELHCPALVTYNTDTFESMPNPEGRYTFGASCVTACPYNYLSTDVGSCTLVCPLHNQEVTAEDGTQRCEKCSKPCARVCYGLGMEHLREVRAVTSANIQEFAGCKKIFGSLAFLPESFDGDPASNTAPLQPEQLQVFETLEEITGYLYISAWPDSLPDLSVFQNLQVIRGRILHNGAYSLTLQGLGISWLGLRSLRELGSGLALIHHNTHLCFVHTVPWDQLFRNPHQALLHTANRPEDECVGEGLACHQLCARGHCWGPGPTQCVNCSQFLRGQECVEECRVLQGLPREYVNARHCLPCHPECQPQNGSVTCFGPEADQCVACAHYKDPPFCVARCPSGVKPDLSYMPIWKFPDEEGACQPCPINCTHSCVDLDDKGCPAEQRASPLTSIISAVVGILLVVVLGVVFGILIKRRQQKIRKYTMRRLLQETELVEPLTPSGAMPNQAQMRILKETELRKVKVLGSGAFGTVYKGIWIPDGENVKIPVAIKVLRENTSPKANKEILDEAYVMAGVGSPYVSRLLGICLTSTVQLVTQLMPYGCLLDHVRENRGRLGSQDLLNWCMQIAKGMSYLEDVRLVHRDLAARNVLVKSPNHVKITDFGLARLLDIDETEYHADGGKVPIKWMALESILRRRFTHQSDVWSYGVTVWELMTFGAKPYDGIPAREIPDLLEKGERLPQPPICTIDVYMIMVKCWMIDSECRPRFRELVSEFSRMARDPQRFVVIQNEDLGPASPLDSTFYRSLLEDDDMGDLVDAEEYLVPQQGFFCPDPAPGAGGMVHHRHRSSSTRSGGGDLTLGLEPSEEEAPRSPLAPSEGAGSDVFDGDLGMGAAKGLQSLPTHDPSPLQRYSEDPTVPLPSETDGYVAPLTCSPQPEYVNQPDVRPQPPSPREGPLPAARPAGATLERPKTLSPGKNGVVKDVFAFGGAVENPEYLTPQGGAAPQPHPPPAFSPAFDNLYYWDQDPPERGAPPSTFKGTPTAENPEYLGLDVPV

[10] = tested on: Mus musculus; experiment: Antiinflammatory activity against LPS-induced BALB/c mouse assessed as reduction in TNFalpha cytokine level at 10 mg/kg, po pretreated for 1 hr followed by LPS-stimulation and measured after 90mins by enzyme immunoassay; type: functional; design: scale not given: the % may be the effect or the level left; conditions: time 150 min, 2.5 h
[11] = Aqueous solubility of compound; type: physicochemical; conditions: buffer
[12] = target: T2, Tyrosine-protein kinase ITK/TSK (Homo sapiens) (UniProt Q08881); experiment: Inhibition of recombinant human EMT at 100 uM
T2 sequence (whole entry): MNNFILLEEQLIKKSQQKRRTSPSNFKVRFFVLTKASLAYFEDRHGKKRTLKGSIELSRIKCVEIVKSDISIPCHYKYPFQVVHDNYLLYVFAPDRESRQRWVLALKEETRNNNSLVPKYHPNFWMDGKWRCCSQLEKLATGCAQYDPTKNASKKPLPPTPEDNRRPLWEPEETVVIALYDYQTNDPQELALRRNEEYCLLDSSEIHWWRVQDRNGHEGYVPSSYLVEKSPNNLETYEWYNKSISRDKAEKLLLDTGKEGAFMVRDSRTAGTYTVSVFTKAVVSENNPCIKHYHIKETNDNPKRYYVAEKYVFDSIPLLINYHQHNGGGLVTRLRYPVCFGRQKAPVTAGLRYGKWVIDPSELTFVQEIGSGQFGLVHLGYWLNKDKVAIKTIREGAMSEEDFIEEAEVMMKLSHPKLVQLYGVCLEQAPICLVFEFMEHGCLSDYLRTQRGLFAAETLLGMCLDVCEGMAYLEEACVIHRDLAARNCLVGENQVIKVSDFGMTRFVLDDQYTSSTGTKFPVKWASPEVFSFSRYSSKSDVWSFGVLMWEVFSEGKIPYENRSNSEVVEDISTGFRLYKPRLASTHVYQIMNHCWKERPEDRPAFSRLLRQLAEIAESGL

[13] = target: Protein kinase C alpha type (Homo sapiens) (UniProt P17252); experiment: Inhibition of recombinant human PKCalpha at 100 uM
[14] = organism: Homo sapiens; experiment: Inhibition of recombinant human MAPK at 100 uM
[15] = tested on: THP-1; experiment: Antiinflammatory activity against LPS-induced human THP-1 cells assessed as reduction in TNFalpha cytokine level preincubated for 1 hr followed by LPS-stimulation and measured after 6 hrs by enzyme immunoassay; type: functional, cell-based
[16] = target: Signal transducer and activator of transcription 3 (Homo sapiens) (UniProt P40763); experiment: Inhibition of EGF-stimulated STAT3 phosphorylation in human NCI-H292 cells at 100 uM pre incubated for 60 mins followed by […] stimulation for 5 mins by immunoblot analysis; type: cell-based; conditions: time 65.0 min
Signal transducer and activator of transcription 3 (Homo sapiens), sequence (P40763 whole entry): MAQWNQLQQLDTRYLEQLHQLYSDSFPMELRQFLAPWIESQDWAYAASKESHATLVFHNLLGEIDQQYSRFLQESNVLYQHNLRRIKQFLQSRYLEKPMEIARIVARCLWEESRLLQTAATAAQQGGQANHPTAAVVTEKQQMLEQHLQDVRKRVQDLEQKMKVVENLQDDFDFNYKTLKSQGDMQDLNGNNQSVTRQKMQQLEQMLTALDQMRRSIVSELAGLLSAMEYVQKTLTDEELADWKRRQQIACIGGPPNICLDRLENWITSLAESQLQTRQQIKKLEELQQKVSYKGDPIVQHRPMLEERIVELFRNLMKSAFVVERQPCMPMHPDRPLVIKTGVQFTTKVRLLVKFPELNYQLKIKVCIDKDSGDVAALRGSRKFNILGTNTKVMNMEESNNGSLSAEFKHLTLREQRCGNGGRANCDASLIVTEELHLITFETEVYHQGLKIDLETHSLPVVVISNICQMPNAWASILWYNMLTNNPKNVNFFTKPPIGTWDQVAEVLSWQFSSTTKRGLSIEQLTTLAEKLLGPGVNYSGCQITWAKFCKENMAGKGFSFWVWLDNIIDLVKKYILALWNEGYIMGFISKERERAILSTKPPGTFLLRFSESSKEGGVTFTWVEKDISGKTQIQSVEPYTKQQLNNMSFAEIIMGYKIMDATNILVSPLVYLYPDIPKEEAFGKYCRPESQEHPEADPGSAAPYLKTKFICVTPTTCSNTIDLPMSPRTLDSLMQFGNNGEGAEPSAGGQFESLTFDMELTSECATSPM

[17] = target: Tyrosine-protein kinase Lck (Homo sapiens) (UniProt P06239); experiment: Inhibition of recombinant human LCK at 100 uM
Tyrosine-protein kinase Lck (Homo sapiens), sequence (P06239 2-509 limits assumed): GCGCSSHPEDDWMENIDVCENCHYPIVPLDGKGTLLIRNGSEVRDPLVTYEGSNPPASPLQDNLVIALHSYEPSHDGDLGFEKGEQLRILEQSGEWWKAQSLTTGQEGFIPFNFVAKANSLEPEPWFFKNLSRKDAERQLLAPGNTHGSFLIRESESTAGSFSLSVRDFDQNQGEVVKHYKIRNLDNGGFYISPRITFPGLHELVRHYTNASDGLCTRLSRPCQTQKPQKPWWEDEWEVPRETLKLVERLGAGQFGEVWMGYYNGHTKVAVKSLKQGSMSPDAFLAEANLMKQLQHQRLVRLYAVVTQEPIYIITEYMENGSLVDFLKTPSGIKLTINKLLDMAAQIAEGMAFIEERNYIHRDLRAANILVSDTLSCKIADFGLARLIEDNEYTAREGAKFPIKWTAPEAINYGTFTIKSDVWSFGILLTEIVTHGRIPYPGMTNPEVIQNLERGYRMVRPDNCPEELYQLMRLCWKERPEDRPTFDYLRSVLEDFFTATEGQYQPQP

[18] = Cmax in BALB/c mouse at 10 mg/kg, po measured upto 8 hrs by LC-MS-MS analysis; type: ADME, organism-based; conditions: in vivo
[19] = tested on: THP-1; experiment: Cytotoxicity against human THP-1 cells by trypan blue exclusion assay; type: toxicity, cell-based
[20] = Half life in BALB/c mouse at 2 mg/kg, iv measured upto 8 hrs by LC-MS-MS analysis; type: ADME, organism-based; conditions: in vivo
[21] = target: MAP kinase-activated protein kinase 2 (Homo sapiens) (UniProt P49137); experiment: Inhibition of LPS-stimulated MAPKAPK2 activation in human THP-1 cells at 100 uM using [33P]ATP as substrate pre incubated for 60 mins followed by LPS-stimulation for 30 mins; type: cell-based; conditions: time 90.0 min
[22] = Total clearance in BALB/c mouse at 2 mg/kg, iv measured upto 8 hrs by LC-MS-MS analysis; type: ADME, organism-based; conditions: in vivo
[23] = target: Mitogen-activated protein kinase 14 (Homo sapiens) (UniProt Q16539); experiment: Inhibition of recombinant human P38alpha at 100 uM
Mitogen-activated protein kinase 14 (Homo sapiens), sequence (Q16539 whole entry): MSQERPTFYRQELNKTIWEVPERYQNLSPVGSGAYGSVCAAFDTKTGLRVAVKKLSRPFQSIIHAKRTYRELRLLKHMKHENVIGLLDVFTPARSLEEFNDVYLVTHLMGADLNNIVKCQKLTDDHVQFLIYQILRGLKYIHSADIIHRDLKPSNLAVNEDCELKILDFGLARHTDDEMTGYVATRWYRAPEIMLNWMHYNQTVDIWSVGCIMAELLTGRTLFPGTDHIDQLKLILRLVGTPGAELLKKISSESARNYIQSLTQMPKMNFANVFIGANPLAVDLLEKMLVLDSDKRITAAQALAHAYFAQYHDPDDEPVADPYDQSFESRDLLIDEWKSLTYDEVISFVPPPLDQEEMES

[24] = target: T3, Inhibitor of nuclear factor kappa-B kinase subunit epsilon (Homo sapiens) (UniProt Q14164); experiment: Inhibition of GST-tagged IKKE (unknown origin) expressed in High five cells using LDDRHDSGLDSMKDEEY as substrate incubated for 5 mins in presence of [gamma33P]ATP by liquid scintillation counter analysis
T3 sequence (whole entry): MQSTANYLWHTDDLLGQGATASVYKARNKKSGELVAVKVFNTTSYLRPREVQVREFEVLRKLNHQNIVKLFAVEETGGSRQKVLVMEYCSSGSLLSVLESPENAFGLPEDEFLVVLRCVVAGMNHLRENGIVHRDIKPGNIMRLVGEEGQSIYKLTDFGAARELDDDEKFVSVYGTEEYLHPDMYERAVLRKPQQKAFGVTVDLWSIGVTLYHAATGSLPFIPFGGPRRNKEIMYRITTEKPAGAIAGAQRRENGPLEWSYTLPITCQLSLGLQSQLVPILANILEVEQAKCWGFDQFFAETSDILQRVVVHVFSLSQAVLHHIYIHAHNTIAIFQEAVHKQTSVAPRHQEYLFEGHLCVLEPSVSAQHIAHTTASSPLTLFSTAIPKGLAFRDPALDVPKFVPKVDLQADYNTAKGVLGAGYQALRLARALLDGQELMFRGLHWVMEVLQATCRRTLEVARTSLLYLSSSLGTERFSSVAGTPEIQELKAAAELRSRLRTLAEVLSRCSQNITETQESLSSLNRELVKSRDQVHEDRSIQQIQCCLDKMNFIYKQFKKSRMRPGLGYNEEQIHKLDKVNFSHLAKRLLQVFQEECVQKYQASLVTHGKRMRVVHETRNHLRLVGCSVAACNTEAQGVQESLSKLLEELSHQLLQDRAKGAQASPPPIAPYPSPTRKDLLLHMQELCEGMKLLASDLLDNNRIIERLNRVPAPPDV

[25] = Volume of distribution at steady state in BALB/c mouse at 2 mg/kg, iv measured upto 8 hrs by LC-MS-MS analysis; type: ADME, organism-based; conditions: in vivo, read-out: Vdss
[26] = Tmax in BALB/c mouse at 10 mg/kg, po measured upto 8 hrs by LC-MS-MS analysis; type: ADME, organism-based; conditions: in vivo
[27] = target: T4, Tyrosine-protein kinase JAK3 (Homo sapiens) (UniProt P52333); experiment: Inhibition of recombinant human JAK3 at 100 uM
T4 sequence (whole entry): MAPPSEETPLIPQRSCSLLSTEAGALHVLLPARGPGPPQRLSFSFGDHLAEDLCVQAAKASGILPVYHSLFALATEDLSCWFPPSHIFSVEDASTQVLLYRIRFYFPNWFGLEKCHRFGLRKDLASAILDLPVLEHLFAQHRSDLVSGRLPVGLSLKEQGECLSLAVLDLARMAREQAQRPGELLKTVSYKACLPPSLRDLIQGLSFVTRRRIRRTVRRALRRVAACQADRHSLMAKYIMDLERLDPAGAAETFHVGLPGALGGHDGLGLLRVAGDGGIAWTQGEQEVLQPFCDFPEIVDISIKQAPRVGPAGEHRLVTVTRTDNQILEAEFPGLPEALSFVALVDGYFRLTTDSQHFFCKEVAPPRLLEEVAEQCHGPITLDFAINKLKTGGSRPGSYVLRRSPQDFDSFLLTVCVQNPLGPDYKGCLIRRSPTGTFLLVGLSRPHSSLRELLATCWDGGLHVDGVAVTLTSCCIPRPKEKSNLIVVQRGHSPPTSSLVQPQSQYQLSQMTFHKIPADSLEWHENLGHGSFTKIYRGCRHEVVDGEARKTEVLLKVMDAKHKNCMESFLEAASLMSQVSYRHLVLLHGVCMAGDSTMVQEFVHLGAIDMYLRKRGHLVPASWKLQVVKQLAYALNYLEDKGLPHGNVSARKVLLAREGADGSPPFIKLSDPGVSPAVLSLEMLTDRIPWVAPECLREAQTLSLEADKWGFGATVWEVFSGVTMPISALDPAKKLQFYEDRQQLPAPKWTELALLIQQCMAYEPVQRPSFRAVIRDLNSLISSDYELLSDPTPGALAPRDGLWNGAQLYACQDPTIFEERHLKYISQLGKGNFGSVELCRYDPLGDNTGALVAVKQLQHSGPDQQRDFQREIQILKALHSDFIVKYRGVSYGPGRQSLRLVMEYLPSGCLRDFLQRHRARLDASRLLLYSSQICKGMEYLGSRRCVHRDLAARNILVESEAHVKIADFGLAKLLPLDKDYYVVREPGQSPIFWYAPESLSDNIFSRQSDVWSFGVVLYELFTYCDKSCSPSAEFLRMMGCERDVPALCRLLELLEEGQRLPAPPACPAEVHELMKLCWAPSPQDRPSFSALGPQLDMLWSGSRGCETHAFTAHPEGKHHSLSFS

[28] = tested on: THP-1; experiment: Antiinflammatory activity against LPS-induced human THP-1 cells assessed as reduction in IL-8 cytokine level preincubated for 1 hr followed by LPS-stimulation and measured after 6 hrs by enzyme immunoassay; type: functional, cell-based
[29] = target: Insulin-like growth factor 1 receptor (Homo sapiens) (UniProt P08069); experiment: Inhibition of recombinant human IGF1R at 100 uM
[30] = tested on: Mus musculus; experiment: Antiinflammatory activity against LPS-induced po dosed BALB/c mouse assessed as reduction in TNFalpha cytokine level pretreated for 1 hr followed by LPS-stimulation and measured after 90mins by enzyme immunoassay; type: functional, organism-based; conditions: dose 1-100 mg/kg, time 150.0 min

Mitogen-activated protein kinase 1 (Homo sapiens), sequence (P28482 whole entry): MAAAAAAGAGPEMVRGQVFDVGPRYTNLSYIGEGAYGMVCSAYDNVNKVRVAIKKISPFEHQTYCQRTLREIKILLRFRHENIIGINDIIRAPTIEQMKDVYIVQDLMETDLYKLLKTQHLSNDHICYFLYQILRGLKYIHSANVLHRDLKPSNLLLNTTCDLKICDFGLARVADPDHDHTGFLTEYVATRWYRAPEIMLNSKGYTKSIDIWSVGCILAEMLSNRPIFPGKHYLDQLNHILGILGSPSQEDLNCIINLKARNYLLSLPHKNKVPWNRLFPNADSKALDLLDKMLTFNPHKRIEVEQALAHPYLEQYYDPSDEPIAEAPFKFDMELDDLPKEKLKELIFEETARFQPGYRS
Epidermal growth factor receptor (Homo sapiens), sequence (P00533 whole entry): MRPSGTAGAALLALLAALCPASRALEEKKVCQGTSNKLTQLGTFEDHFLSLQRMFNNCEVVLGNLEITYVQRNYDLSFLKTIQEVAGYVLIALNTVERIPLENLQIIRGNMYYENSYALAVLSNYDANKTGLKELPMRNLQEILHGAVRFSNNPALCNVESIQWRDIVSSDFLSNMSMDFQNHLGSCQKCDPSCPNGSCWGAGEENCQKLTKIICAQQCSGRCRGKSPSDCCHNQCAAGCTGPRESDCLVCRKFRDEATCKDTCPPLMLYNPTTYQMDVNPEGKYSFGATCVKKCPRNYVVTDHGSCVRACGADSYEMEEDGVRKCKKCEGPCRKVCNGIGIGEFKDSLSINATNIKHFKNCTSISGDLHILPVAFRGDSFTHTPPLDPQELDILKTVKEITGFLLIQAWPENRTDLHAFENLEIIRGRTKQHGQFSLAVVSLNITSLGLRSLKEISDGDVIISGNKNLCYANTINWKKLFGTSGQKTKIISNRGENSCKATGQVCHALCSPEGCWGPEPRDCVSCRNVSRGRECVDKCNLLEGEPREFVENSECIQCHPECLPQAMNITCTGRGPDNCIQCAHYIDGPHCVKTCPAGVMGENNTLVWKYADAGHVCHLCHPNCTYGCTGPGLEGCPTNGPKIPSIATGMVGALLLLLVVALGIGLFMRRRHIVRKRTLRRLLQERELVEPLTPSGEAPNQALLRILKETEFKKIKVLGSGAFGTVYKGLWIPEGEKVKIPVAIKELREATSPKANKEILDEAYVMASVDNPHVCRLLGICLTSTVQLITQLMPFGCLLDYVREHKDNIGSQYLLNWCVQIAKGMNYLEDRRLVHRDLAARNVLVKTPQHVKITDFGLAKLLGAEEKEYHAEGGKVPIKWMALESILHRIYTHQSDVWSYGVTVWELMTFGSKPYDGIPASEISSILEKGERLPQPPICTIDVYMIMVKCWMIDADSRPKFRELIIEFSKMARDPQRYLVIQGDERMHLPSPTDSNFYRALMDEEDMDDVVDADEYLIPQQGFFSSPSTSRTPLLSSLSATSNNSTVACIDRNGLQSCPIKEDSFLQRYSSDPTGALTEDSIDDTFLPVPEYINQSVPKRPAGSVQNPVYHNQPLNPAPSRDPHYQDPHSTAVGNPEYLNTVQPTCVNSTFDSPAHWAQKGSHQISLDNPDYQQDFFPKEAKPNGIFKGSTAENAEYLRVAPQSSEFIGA

SMILES: Cc1ccc2nc(NCCN)c3ncc(C)n3c2c1 [BMS-345541]
- inhibition [1]: inactive
- inhibition [2]: inactive
- Activity [3]: 100%
- inhibition [4]: inactive
- inhibition [5]: inactive
- bioavailability [6]: ~100%
- IC50 [7]: 1 µM
- IC50 [8]: 1 µM
- inhibition [9]: inactive
- Activity [10]: 50%
- solubility [11]: Soluble
- inhibition [12]: inactive
- inhibition [13]: inactive
- inhibition [14]: inactive
- IC50 [15]: 1 µM
- inhibition [16]: inactive
- inhibition [17]: inactive
- Cmax [18]: 1.6 µM
- Activity [19]: Non-Toxic
- half-life [20]: 2.2 h
- inhibition [21]: inactive
- clearance [22]: 6.81 L/h/kg
- inhibition [23]: inactive
- inhibition [24]: inactive
- Vd [25]: 18.5 L/kg
- Tmax [26]: 0.52 h
- inhibition [27]: inactive
- IC50 [28]: 1 µM
- inhibition [29]: inactive
- Activity [30]: Dose-Dependent Effect
